Data: article PMC10746543, “Design principles for cyclin K molecular glue degraders” (Nature Chemical Biology, 2023)
Several values for one entry are separate records, joined by “and”; a condition that tells them apart may be missing. Equal values may be shown once. Read-outs that look alike come from different tables or passages of the source.

Tests used:
[1] = system: HEK293T cells; experiment: Drug sensitivity assay (CellTiter-Glo viability) with or without MLN4924 pretreatment; format: cell-based, human; settings: for EC50: Homo sapiens, HEK-293T
Summary of the method: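 Luminescent ATP read-out (CellTiter-Glo) after 3 days of drug exposure, normalised to DMSO controls. Cells were HEK293T–Cas9, pretreated with 100 nM MLN4924 or DMSO for 2 h before drug dispensing.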

[2] = target: T1, CDK12–cyclin K and DDB1 (Homo sapiens, UniProt Q16531+Q9NYV4, K965R); experiment: TR-FRET Kd determination, quadratic fit, 50 nM or 10 nM CDK12–cyclin K; format: binding; settings: for Kd: n = 1
T1 construct: His6–CDK12 (a.a. 713–1,052); full-length or beta-propeller B domain deletion (ΔBPB: a.a. 396–705 deleted) constructs of His6–DDB1ΔBPB, StrepII–Avi–DDB1, or His6–Spy–DDB1; made in house; host or cells: Trichoplusia ni High Five insect cells (baculovirus)
Source text: Equation (2) is a quadratic binding equation used for Kd determination,where Top and Bottom refer to the curve plateaus. […]

[3] = target: T1, CDK12–cyclin K and DDB1; experiment: TR-FRET ternary complex formation assay (compound titration); format: binding
Summary of the method: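 TR-FRET ratio 520/490 nm; 70 μs delay before read to suppress background.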

[4] = system: cyclin K–eGFP degradation reporter; experiment: Cyclin K reporter stability analysis (dual-color cyclin K–eGFP reporter); format: cell-based, human; settings: Supplementary Table 2; HEK293T cycK-eGFP reporter, 5 h; read-out: Cellular assays DC50
Summary of the method: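 HEK293T–Cas9 cells carrying the cyclin K–eGFP reporter were seeded at 1 × 10^6 ml^−1 and exposed to drug or DMSO for 5 h. Flow cytometry gave geometric means of eGFP and mCherry in round, mCherry-positive cells. The eGFP/mCherry ratio was normalized to the mean of three DMSO controls.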

T1 sequence (Q9NYV4 713-1052 K965R): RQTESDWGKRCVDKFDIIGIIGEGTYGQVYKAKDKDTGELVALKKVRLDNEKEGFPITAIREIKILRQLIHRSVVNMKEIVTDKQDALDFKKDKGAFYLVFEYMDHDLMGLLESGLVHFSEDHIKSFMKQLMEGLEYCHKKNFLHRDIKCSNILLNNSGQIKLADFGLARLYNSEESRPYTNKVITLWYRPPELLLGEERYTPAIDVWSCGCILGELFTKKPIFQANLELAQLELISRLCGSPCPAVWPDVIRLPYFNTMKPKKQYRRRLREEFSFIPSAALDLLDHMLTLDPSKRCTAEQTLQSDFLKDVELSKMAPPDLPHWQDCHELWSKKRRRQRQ
T1 sequence (O75909 1-267 partner): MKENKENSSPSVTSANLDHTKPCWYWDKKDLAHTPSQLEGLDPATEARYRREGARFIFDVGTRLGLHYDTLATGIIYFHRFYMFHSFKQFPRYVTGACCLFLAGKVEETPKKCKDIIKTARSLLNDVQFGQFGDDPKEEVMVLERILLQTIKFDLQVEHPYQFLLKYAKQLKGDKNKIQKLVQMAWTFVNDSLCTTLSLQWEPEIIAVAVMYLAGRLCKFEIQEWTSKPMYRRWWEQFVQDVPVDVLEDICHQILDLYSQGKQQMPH
T1 sequence (Q16531 whole entry): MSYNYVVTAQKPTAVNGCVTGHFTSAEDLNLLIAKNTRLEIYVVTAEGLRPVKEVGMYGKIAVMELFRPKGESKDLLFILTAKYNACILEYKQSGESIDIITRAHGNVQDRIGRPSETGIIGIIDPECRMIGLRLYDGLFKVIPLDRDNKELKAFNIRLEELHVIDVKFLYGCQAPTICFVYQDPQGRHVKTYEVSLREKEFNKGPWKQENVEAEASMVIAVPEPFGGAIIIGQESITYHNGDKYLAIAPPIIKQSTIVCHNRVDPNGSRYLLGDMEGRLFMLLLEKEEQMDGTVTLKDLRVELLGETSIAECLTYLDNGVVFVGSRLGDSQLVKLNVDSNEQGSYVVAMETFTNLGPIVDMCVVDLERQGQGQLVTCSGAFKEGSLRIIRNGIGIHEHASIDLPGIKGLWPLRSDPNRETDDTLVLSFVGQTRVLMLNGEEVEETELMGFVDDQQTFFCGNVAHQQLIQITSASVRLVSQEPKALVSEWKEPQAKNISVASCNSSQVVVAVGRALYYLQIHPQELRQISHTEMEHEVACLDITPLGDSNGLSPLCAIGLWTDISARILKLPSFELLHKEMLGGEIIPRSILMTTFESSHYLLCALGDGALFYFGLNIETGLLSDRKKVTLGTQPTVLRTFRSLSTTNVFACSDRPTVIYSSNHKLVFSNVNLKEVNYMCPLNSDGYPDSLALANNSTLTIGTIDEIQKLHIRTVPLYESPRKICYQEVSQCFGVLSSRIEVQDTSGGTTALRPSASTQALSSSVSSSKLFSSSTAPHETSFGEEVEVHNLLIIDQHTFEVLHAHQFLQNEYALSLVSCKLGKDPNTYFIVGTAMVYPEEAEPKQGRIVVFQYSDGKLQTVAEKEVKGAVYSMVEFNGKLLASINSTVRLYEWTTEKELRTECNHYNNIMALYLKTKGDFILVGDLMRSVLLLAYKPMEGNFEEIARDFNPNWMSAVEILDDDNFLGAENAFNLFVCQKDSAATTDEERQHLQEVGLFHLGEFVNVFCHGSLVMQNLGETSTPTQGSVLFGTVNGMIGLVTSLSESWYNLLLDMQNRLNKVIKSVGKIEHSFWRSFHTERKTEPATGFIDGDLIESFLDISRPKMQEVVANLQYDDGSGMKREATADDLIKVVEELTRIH

- Kd ([2]; 10 nM CDK12-cyclin K + 100 nM DDB1): 4 ± 1 nM
- TR-FRET signal ([2]; 10 nM CDK12-cyclin K, compound 0.468 nM): 0.1087
- TR-FRET signal ([2]; 10 nM CDK12-cyclin K, compound 2.16 nM): 0.1516
- TR-FRET signal ([2]; 10 nM CDK12-cyclin K, compound 3.6 nM): 0.2175
- TR-FRET signal ([2]; 10 nM CDK12-cyclin K, compound 7.92 nM): 0.2964
- TR-FRET signal ([2]; 10 nM CDK12-cyclin K, compound 15.84 nM): 0.3471
- TR-FRET signal ([2]; 10 nM CDK12-cyclin K, compound 30.96 nM): 0.4043
- TR-FRET signal ([2]; 10 nM CDK12-cyclin K, compound 62.6399 nM): 0.4639
- TR-FRET signal ([2]; 10 nM CDK12-cyclin K, compound 125.279 nM): 0.4363
- TR-FRET signal ([2]; 10 nM CDK12-cyclin K, compound 244.8 nM): 0.4586
- TR-FRET signal ([2]; 10 nM CDK12-cyclin K, compound 993.6 nM): 0.4753
- TR-FRET signal ([2]; 10 nM CDK12-cyclin K, compound 2001.6 nM): 0.4769
- Kd ([2]; 50 nM CDK12-cyclin K + 100 nM DDB1): 6 ± 2 nM
- TR-FRET signal ([2]; 50 nM CDK12-cyclin K, compound 0.468 nM): 0.2249
- TR-FRET signal ([2]; 50 nM CDK12-cyclin K, compound 2.16 nM): 0.2842
- TR-FRET signal ([2]; 50 nM CDK12-cyclin K, compound 3.6 nM): 0.3938
- TR-FRET signal ([2]; 50 nM CDK12-cyclin K, compound 7.92 nM): 0.6539
- TR-FRET signal ([2]; 50 nM CDK12-cyclin K, compound 15.84 nM): 1.0227
- TR-FRET signal ([2]; 50 nM CDK12-cyclin K, compound 30.96 nM): 1.706
- TR-FRET signal ([2]; 50 nM CDK12-cyclin K, compound 62.6399 nM): 2.089
- TR-FRET signal ([2]; 50 nM CDK12-cyclin K, compound 125.279 nM): 2.303
- TR-FRET signal ([2]; 50 nM CDK12-cyclin K, compound 244.8 nM): 2.498
- TR-FRET signal ([2]; 50 nM CDK12-cyclin K, compound 993.6 nM): 2.704
- TR-FRET signal ([2]; 50 nM CDK12-cyclin K, compound 2001.6 nM): 2.6928
- TR-FRET signal, individual replicate ([3]; compound concentration 0.468 nM): 0.2708 and 0.2758 and 0.8924 and 0.6371
- TR-FRET signal, individual replicate ([3]; compound concentration 2.16 nM): 0.3875 and 0.4113 and 0.3298 and 0.5644
- TR-FRET signal, individual replicate ([3]; compound concentration 3.6 nM): 0.6563 and 0.6817 and 0.5785 and 0.7591
- TR-FRET signal, individual replicate ([3]; compound concentration 7.92001 nM): 1.219 and 1.2973 and 0.9793 and 1.183
- TR-FRET signal, individual replicate ([3]; compound concentration 15.84 nM): 2.2073 and 2.2521 and 2.043 and 2.171
- TR-FRET signal, individual replicate ([3]; compound concentration 30.96 nM): 3.25 and 3.347 and 3.281 and 3.173
- TR-FRET signal, individual replicate ([3]; compound concentration 62.6401 nM): 3.39 and 3.868 and 3.793 and 3.73
- TR-FRET signal, individual replicate ([3]; compound concentration 125.28 nM): 3.865 and 4.101 and 4.033 and 4.091
- TR-FRET signal, individual replicate ([3]; compound concentration 244.8 nM): 3.936 and 4.169 and 4.142 and 4.064
- TR-FRET signal, individual replicate ([3]; compound concentration 993.601 nM): 4.054 and 4.241 and 4.216 and 4.146
- TR-FRET signal, individual replicate ([3]; compound concentration 2001.6 nM): 3.9849 and 4.219 and 4.148 and 4.067
- DDB1–CDK12 complex formation, result in words ([3]; in vitro TR-FRET): activity equivalent to CR8
- EC50 ([3]; in vitro complex formation, 50 nM CDK12–cyclin K, 100 nM DDB1, text and figures, read-out: TR-FRET EC50): 17 ± 1 nM
- EC50 ([3]; sheet MOESM7, read-out: log TR-FRET EC50 (converted)): 16.7 nM
- EC50 ([3]; source data sheet correlations, read-out: TR-FRET EC50): 16.7 nM
- DC50 [4]: 1030 nM
Structure (SMILES): CCC(CO)Nc1nc(NCc2ccc(-c3ccccc3)cc2)c2ncn(C(C)C)c2n1 (centres unmarked) [DS16]
- EC50 ([1]; Supplementary Fig. 5, HEK293T, CellTiter Glo, 72h, pre-treatment with 100 nM MLN4924, read-out: Viability EC50, with MLN4924): 15000 nM
- EC50 ([1]; Supplementary Table 2, HEK293T viability, 72 h, compound alone, read-out: Cellular assays EC50): 600 nM
- % MLN4924 rescue ([1]; PCA input): 1490%
- Toxicity rescue ([1]; Supplementary Table 2, MLN4924-mediated cytotoxicity rescue, 10 µM used where n.d.): 1567%
